Measured values from ChEMBL document CHEMBL1201862, “PubChem BioAssay data set” (2004).
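Assay format: 96-well plates, 48-hour exposure. GI50 = concentration required for 50% inhibition of growth.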 Active and inactive are the calls of the source. No stated cut-off is given here; in the data, active = GI50 up to about 1.1 µM and inactive = higher.

Assays:
Assay in all cases: growth of human tumour cells (NCI), 48 h
HL-60 = system: HL-60
HOP-62 = system: HOP-62
COLO 205 = system: COLO 205
HT-29 = system: HT-29
SK-MEL-5 = system: SK-MEL-5
OVCAR-8 = system: OVCAR-8
IGROV-1 = system: IGROV-1
KM12 = system: KM12
U-251 = system: U-251
OVCAR-3 = system: OVCAR-3
OVCAR-5 = system: OVCAR-5
SF-268 = system: SF-268
MOLT-4 = system: MOLT-4
OVCAR-4 = system: OVCAR-4
LOX IMVI = system: LOX IMVI
CCRF-CEM = system: CCRF-CEM
SNB-19 = system: SNB-19
UACC-62 = system: UACC-62
K562 = system: K562
SK-MEL-28 = system: SK-MEL-28

Measured: GI50

COc1ccc(C2C(=O)C(Cl)N2Nc2nc(C)cc(O)n2)cc1OC (configuration not stated)
inactive: HL-60 13.9 µM | HOP-62 23.6 µM | COLO 205 51.2 µM | HT-29 46.1 µM | SK-MEL-5 29.3 µM | OVCAR-8 26.3 µM | IGROV-1 10.9 µM | KM12 39.6 µM | U-251 26.2 µM | OVCAR-3 10.2 µM | OVCAR-5 > 100 µM | SF-268 17.9 µM | MOLT-4 18.7 µM | OVCAR-4 30.8 µM | LOX IMVI 18.1 µM | CCRF-CEM 5.58 µM | SNB-19 40.5 µM | UACC-62 28.4 µM | K562 22 µM | SK-MEL-28 43.3 µM

O=C1C=CC2OC(c3ccccc3)C(O)C2O1 (configuration not stated)
inactive: HL-60 1.4 µM | HOP-62 12 µM | COLO 205 2.58 µM | HT-29 4.53 µM | SK-MEL-5 7.33 µM | OVCAR-8 3.62 µM | IGROV-1 8.99 µM | KM12 6.76 µM | U-251 10.7 µM | OVCAR-3 3.5 µM | OVCAR-5 9.38 µM | SF-268 5.53 µM | MOLT-4 1.43 µM | OVCAR-4 7.87 µM | LOX IMVI 1.95 µM | CCRF-CEM 1.15 µM | SNB-19 11.4 µM | UACC-62 4.94 µM | K562 3.37 µM | SK-MEL-28 4.49 µM

CCN(CC)C(=O)C(C)n1cc(C)c(=O)[nH]c1=O (configuration not stated)
inactive: HL-60 > 100 µM | HOP-62 > 100 µM | COLO 205 > 100 µM | HT-29 > 100 µM | SK-MEL-5 > 100 µM | OVCAR-8 > 100 µM | IGROV-1 > 100 µM | KM12 > 100 µM | U-251 > 100 µM | OVCAR-3 > 100 µM | OVCAR-5 > 100 µM | SF-268 > 100 µM | MOLT-4 > 100 µM | OVCAR-4 > 100 µM | LOX IMVI > 100 µM | CCRF-CEM > 100 µM | SNB-19 > 100 µM | UACC-62 > 100 µM | K562 > 100 µM | SK-MEL-28 > 100 µM

CC(C)=CCc1c(O)ccc2ccc(=O)oc12 [OSTHENOL]
inactive: HL-60 28.2 µM | COLO 205 > 100 µM | HT-29 > 100 µM | SK-MEL-5 15.3 µM | OVCAR-8 53 µM | IGROV-1 > 68.5 µM | KM12 > 75.5 µM | U-251 21.9 µM | OVCAR-3 60.1 µM | OVCAR-5 > 31.6 µM | SF-268 33.7 µM | MOLT-4 26.9 µM | OVCAR-4 37.8 µM | LOX IMVI 51.5 µM | CCRF-CEM 33.9 µM | SNB-19 > 51.9 µM | UACC-62 44.6 µM | K562 37.6 µM | SK-MEL-28 49.4 µM

CCOC(=O)c1c(NC(=S)NCc2ccccc2)sc2c1CCN(C)C2
inactive: HL-60 17.4 µM | HOP-62 > 100 µM | COLO 205 46.1 µM | HT-29 45.5 µM | SK-MEL-5 45.1 µM | OVCAR-8 82.2 µM | IGROV-1 33 µM | KM12 24.4 µM | OVCAR-3 36.5 µM | OVCAR-5 > 100 µM | SF-268 64 µM | MOLT-4 20.4 µM | CCRF-CEM 17.6 µM | SNB-19 > 100 µM | UACC-62 > 100 µM | K562 21.7 µM

Cn1ncc2c(=O)[nH]c(-c3ccccc3)nc21
inactive: HL-60 > 100 µM | COLO 205 > 100 µM | HT-29 > 100 µM | SK-MEL-5 > 100 µM | OVCAR-8 > 100 µM | IGROV-1 > 100 µM | KM12 > 100 µM | U-251 > 100 µM | OVCAR-5 > 100 µM | SF-268 > 100 µM | MOLT-4 > 100 µM | OVCAR-4 > 100 µM | LOX IMVI > 100 µM | CCRF-CEM > 100 µM | SNB-19 > 100 µM | UACC-62 > 100 µM | K562 > 100 µM | SK-MEL-28 > 100 µM

CCCOC(=O)CNC(=O)OC(C)(C)C
inactive: HL-60 > 100 µM | HOP-62 > 100 µM | COLO 205 > 100 µM | HT-29 > 100 µM | SK-MEL-5 > 100 µM | OVCAR-8 > 100 µM | IGROV-1 > 100 µM | KM12 > 100 µM | U-251 > 100 µM | OVCAR-3 > 100 µM | OVCAR-5 > 100 µM | SF-268 > 100 µM | OVCAR-4 > 100 µM | LOX IMVI > 100 µM | CCRF-CEM > 100 µM | SNB-19 > 100 µM | UACC-62 > 100 µM | K562 > 100 µM | SK-MEL-28 > 100 µM
